According to ChEMBL document CHEMBL1201862, “PubChem BioAssay data set” (2004):
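Assay format: 96-well plates, 48-hour exposure. Abbreviation: GI50, concentration required for 50% inhibition of growth.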 Calls of active or inactive are those of the source. No stated cut-off is given here; in the data, active = GI50 up to about 1.1 µM and inactive = higher.

Experiments:
Assay in all cases: growth of human tumour cells (NCI), 48 h
A549 = system: A549
ACHN = system: ACHN
EKVX = system: EKVX
HCT-15 = system: HCT-15
HT-29 = system: HT-29
Hs-578T = system: Hs-578T
KM12 = system: KM12
MOLT-4 = system: MOLT-4
Malme-3M = system: Malme-3M
NCI-H226 = system: NCI-H226
NCI-H522 = system: NCI-H522
RPMI-8226 = system: RPMI-8226
SF-268 = system: SF-268
SF-295 = system: SF-295
SK-MEL-28 = system: SK-MEL-28
SK-OV-3 = system: SK-OV-3
SNB-19 = system: SNB-19
SNB-75 = system: SNB-75
UACC-257 = system: UACC-257
MCF7 = system: MCF7

Row | SMILES | GI50 (A549) | GI50 (ACHN) | GI50 (EKVX) | GI50 (HCT-15) [µM] | GI50 (HT-29) | GI50 (Hs-578T) | GI50 (KM12) | GI50 (MOLT-4) | GI50 (Malme-3M) | GI50 (NCI-H226) | GI50 (NCI-H522) | GI50 (RPMI-8226) | GI50 (SF-268) | GI50 (SF-295) | GI50 (SK-MEL-28) | GI50 (SK-OV-3) | GI50 (SNB-19) | GI50 (SNB-75) | GI50 (UACC-257) | GI50 (MCF7)
1 | Oc1c(/N=N\c2ccccc2)c2cccc3ccc4cccc1c4c32 | > 100 µM (inactive) | 26.8 µM (inactive) | > 100 µM (inactive) | > 100 | > 100 µM (inactive) | 33.7 µM (inactive) | > 100 µM (inactive) | > 100 µM (inactive) | > 100 µM (inactive) | > 100 µM (inactive) | > 100 µM (inactive) | > 100 µM (inactive) | 45.9 µM (inactive) | 81.7 µM (inactive) | > 100 µM (inactive) | > 100 µM (inactive) | > 100 µM (inactive) | 38.6 µM (inactive) | > 100 µM (inactive) | –
2 | CC(C)(NO)/C(=N\O)c1ccccc1 | – | > 10 µM (inactive) | > 10 µM (inactive) | > 10 | > 10 µM (inactive) | – | > 10 µM (inactive) | > 10 µM (inactive) | > 10 µM (inactive) | > 10 µM (inactive) | > 10 µM (inactive) | > 10 µM (inactive) | > 10 µM (inactive) | > 10 µM (inactive) | – | – | > 10 µM (inactive) | – | > 10 µM (inactive) | > 10 µM (inactive)
3 | CC(=O)NCC1OC2COC(c3ccccc3)OC2C(NC(=O)c2ccccc2)C1OC(=O)c1ccccc1 (configuration not stated) | > 100 µM (inactive) | > 100 µM (inactive) | > 100 µM (inactive) | > 100 | > 100 µM (inactive) | > 100 µM (inactive) | > 100 µM (inactive) | 86.7 µM (inactive) | > 100 µM (inactive) | > 100 µM (inactive) | – | – | > 100 µM (inactive) | > 100 µM (inactive) | > 100 µM (inactive) | > 100 µM (inactive) | > 100 µM (inactive) | > 100 µM (inactive) | > 100 µM (inactive) | > 100 µM (inactive)
4 | CN1N=C(c2ccncc2)OC1c1cccc(C(F)(F)F)c1 (configuration not stated) | > 100 µM (inactive) | > 100 µM (inactive) | > 100 µM (inactive) | > 100 | > 100 µM (inactive) | > 100 µM (inactive) | > 100 µM (inactive) | > 100 µM (inactive) | – | 58.9 µM (inactive) | > 100 µM (inactive) | > 100 µM (inactive) | > 100 µM (inactive) | > 100 µM (inactive) | > 100 µM (inactive) | > 100 µM (inactive) | > 100 µM (inactive) | 4.36 µM (inactive) | > 100 µM (inactive) | –
5 | COc1cc(C)c(/C=C/C(=O)N2C(=O)OC[C@@H]2c2ccccc2)c(C)c1 | > 100 µM (inactive) | > 100 µM (inactive) | 98.9 µM (inactive) | 74 | 18.6 µM (inactive) | 88.9 µM (inactive) | 61.9 µM (inactive) | 31.1 µM (inactive) | > 100 µM (inactive) | > 100 µM (inactive) | > 100 µM (inactive) | 48.3 µM (inactive) | > 100 µM (inactive) | > 100 µM (inactive) | > 100 µM (inactive) | > 100 µM (inactive) | > 100 µM (inactive) | 34.3 µM (inactive) | 88.7 µM (inactive) | –
6 | CCc1n[nH]c(=O)n1CCO | > 100 µM (inactive) | > 100 µM (inactive) | > 100 µM (inactive) | > 100 | > 100 µM (inactive) | – | > 100 µM (inactive) | > 100 µM (inactive) | – | > 100 µM (inactive) | – | > 100 µM (inactive) | – | > 100 µM (inactive) | > 100 µM (inactive) | > 100 µM (inactive) | > 100 µM (inactive) | – | > 100 µM (inactive) | > 100 µM (inactive)
7 | CS(=O)(=O)OCCN1CCC2(CC1)SSC1(CCN(CCOS(C)(=O)=O)CC1)S2 | > 100 µM (inactive) | 33.5 µM (inactive) | – | > 100 | 50.5 µM (inactive) | 82.6 µM (inactive) | > 100 µM (inactive) | 31.8 µM (inactive) | 22.8 µM (inactive) | – | – | 8.87 µM (inactive) | 22.3 µM (inactive) | 45.4 µM (inactive) | > 100 µM (inactive) | 64.4 µM (inactive) | 69.3 µM (inactive) | 99.1 µM (inactive) | > 100 µM (inactive) | 17.1 µM (inactive)
8 | CC(C(=O)c1ccc(O)cc1)C1(O)C(=O)Nc2c(Cl)cc(Cl)cc21 (configuration not stated) | > 100 µM (inactive) | 16.6 µM (inactive) | 49.3 µM (inactive) | 71.6 | > 73.8 µM (inactive) | – | > 87.3 µM (inactive) | 28.9 µM (inactive) | > 100 µM (inactive) | 19.1 µM (inactive) | 23.1 µM (inactive) | 25.6 µM (inactive) | > 76.9 µM (inactive) | 45.4 µM (inactive) | 31.1 µM (inactive) | > 100 µM (inactive) | > 77.6 µM (inactive) | 47.6 µM (inactive) | 17.5 µM (inactive) | –
9 | COc1ccc2c(c1)OCC1(O)Cc3ccccc3OC21 (configuration not stated) | > 100 µM (inactive) | > 100 µM (inactive) | > 100 µM (inactive) | > 100 | > 100 µM (inactive) | – | > 100 µM (inactive) | 78.9 µM (inactive) | > 100 µM (inactive) | > 100 µM (inactive) | > 100 µM (inactive) | > 100 µM (inactive) | > 100 µM (inactive) | > 100 µM (inactive) | – | > 100 µM (inactive) | – | > 100 µM (inactive) | > 100 µM (inactive) | > 100 µM (inactive)
10 | CC(=O)N1C(NN(C)C)CCN1c1ccccc1 (configuration not stated) | > 10 µM (inactive) | – | > 10 µM (inactive) | > 10 | > 10 µM (inactive) | – | > 10 µM (inactive) | > 10 µM (inactive) | > 10 µM (inactive) | – | – | > 10 µM (inactive) | > 10 µM (inactive) | > 10 µM (inactive) | > 10 µM (inactive) | > 10 µM (inactive) | – | > 10 µM (inactive) | > 10 µM (inactive) | > 10 µM (inactive)
11 | COC(=O)[C@](NC(=O)OCc1ccccc1)([C@@H](C)[S+]([O-])c1ccc(C)cc1)C(F)(F)F (some centres not stated) | 29.9 µM (inactive) | 39.6 µM (inactive) | 29.2 µM (inactive) | 34.7 | 24.8 µM (inactive) | 58.9 µM (inactive) | 29.3 µM (inactive) | 18.7 µM (inactive) | 33 µM (inactive) | 35.2 µM (inactive) | 24.6 µM (inactive) | 26.5 µM (inactive) | 41.1 µM (inactive) | 32.7 µM (inactive) | 62.7 µM (inactive) | 53.1 µM (inactive) | 43 µM (inactive) | 36.4 µM (inactive) | 24.8 µM (inactive) | –
12 | O=C(Nc1ccccc1)c1cc2c(cc1Cl)SC(NNCCO)=NS2(=O)=O | – | > 100 µM (inactive) | > 100 µM (inactive) | > 100 | > 100 µM (inactive) | > 100 µM (inactive) | > 100 µM (inactive) | > 100 µM (inactive) | – | > 100 µM (inactive) | – | > 100 µM (inactive) | > 100 µM (inactive) | > 100 µM (inactive) | > 100 µM (inactive) | > 100 µM (inactive) | > 100 µM (inactive) | 99.5 µM (inactive) | > 100 µM (inactive) | > 100 µM (inactive)
